For orientation: pIC50 means −log10 of the IC50, conventionally taken in molar units. Low readings indicate a large IC50, high ones a small IC50.

These results are taken from patent US12139499B2, “Heteroaryl compounds for treating Huntington's disease” (PTC THERAPEUTICS, INC., priority 2018, dated 2024).

This test relates to Endogenous Huntingtin Protein. The test is described as follows: Endogenous Huntingtin Protein Assay (ELISA-based MSD electrochemiluminescence). It is filed as cell-based. The settings on record: Table 1. The gist of the method: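 Huntingtin was captured overnight at 4 °C on plates coated with 1 μg/mL MW1 (polyQ-expanded) or MAB2166 antibody and BSA-blocked. Detection used a rabbit monoclonal and then a SULFO-TAG goat anti-rabbit antibody (0.25 μg/mL, 1 h each, room temperature). Signal was read by electrochemiluminescence.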

Molecules are shown by their SMILES. pIC50: −log10 of the molar value. Where only a bound is given, the exact number is not on record here.

Turning to `Cc1nc2c(C#N)cc(-c3cc4sc(N(C)C5CC6(C)CCC(C)(C5)N6)nc4cn3)cc2o1` [Compound 301, 6-(2-{[(1R,3s,5S)-1,5-dimethyl-8-azabicyclo[3.2.1]octan-3-yl](methyl)amino)[1,3]thiazolo[4,5-c]pyridin-6-yl)-2-methyl-1,3-benzoxazole-4-carbonitrile], the pIC50 is no less than 7.00. For `CC[C@]12CC[C@](CC)(CC(N(C)c3nc4cnc(-c5cc(C#N)c6nc(C)cn6c5)nc4s3)C1)N2` (stereo partly drawn) [Compound 303, 6-(2-{[(1R,3r,5S)-1,5-diethyl-8-azabicyclo[3.2.1]octan-3-yl](methyl)amino}[1,3]thiazolo[5,4-d]pyrimidin-5-yl)-2-methylimidazo[1,2-a]pyridine-8-carbonitrile], the negative logarithm of the IC50 (pIC50) is no less than 7.00. Consider `CC[C@]12CC[C@](CC)(CC(N(C)c3nc4cnc(-c5cc(F)c6nc(C)cn6c5)nc4s3)C1)N2` (stereo partly drawn) [Compound 304, N-[(1R,3r,5S)-1,5-diethyl-8-azabicyclo[3.2.1]octan-3-yl]-5-(8-fluoro-2-methylimidazo[1,2-a]pyridin-6-yl)-N-methyl[1,3]thiazolo[5,4-d]pyrimidin-2-amine], for which the pIC50 is 6.30 to 7.00. For `Cc1csc2nc(-c3cc4sc(N(C)C5CC(C)(C)NC(C)(C)C5)nc4cn3)cn12` [Compound 305], the pIC50 was 6.00 to 6.30. As to `Cc1cn2nc(-c3cc(F)c4nc(OC5CCNCC5)sc4c3)cc(C)c2n1` [Compound 306, 6-{4-fluoro-2-[(piperidin-4-yl)oxy]-1,3-benzothiazol-6-yl}-2,8-dimethylimidazo[1,2-b]pyridazine], the negative-log IC50 (pIC50) was no less than 7.00. Molecule `Cn1cc2cc(-c3cc(F)c4nc(OC5CCNCC5)sc4c3)cc(F)c2n1` [Compound 307, 4-fluoro-6-(7-fluoro-2-methyl-2H-indazol-5-yl)-2-[(piperidin-4-yl)oxy]-1,3-benzothiazole] had a pIC50 of no less than 7.00. Take `Cc1nn2cc(-c3cc4sc(N(C)C5CC(C)(C)NC(C)(C)C5)nc4cn3)nc2s1` [Compound 308, N-methyl-6-(2-methylimidazo[2,1-b][1,3,4]thiadiazol-6-yl)-N-(2,2,6,6-tetramethylpiperidin-4-yl)[1,3]thiazolo[4,5-c]pyridin-2-amine]: the pIC50 was 5.52 to 6.00. The figure for `Cc1cn2cc(-c3cc4sc(OC5CC(C)(C)NC(C)(C)C5)nc4cn3)cc(C#N)c2n1` [Compound 309, 2-methyl-6-{2-[(2,2,6,6-tetramethylpiperidin-4-yl)oxy][1,3]thiazolo[4,5-c]pyridin-6-yl}imidazo[1,2-a]pyridine-8-carbonitrile] is no less than 7.00; for `Cc1cn2cc(-c3cc4sc(OC5CC(C)(C)NC(C)(C)C5)nc4cn3)cc(F)c2n1` [Compound 310, 6-(8-fluoro-2-methylimidazo[1,2-a]pyridin-6-yl)-2-[(2,2,6,6-tetramethylpiperidin-4-yl)oxy][1,3]thiazolo[4,5-c]pyridine] it is no less than 7.00; for `Cn1cc2cc(-c3cc4sc(OC5CC(C)(C)NC(C)(C)C5)nc4cn3)cc(C#N)c2n1` [Compound 311, 2-methyl-5-{2-[(2,2,6,6-tetramethylpiperidin-4-yl)oxy][1,3]thiazolo[4,5-c]pyridin-6-yl}-2H-indazole-7-carbonitrile] it is no less than 7.00. The figure for `Cn1cc2cc(-c3cc4sc(OC5CC(C)(C)NC(C)(C)C5)nc4cn3)cc(F)c2n1` [Compound 312, 6-(7-fluoro-2-methyl-2H-indazol-5-yl)-2-[(2,2,6,6-tetramethylpiperidin-4-yl)oxy][1,3]thiazolo[4,5-c]pyridine] is 6.30 to 7.00; for `Cc1cn2cc(-c3cc4sc(OC5CCNCC5)nc4cn3)cc(C#N)c2n1` [Compound 313, 2-methyl-6-{2-[(piperidin-4-yl)oxy][1,3]thiazolo[4,5-c]pyridin-6-yl}imidazo[1,2-a]pyridine-8-carbonitrile] it is 6.30 to 7.00. The molecule `Cc1cn2cc(-c3cc4sc(OC5CCNCC5)nc4cn3)cc(F)c2n1` [Compound 314, 6-(8-fluoro-2-methylimidazo[1,2-a]pyridin-6-yl)-2-[(piperidin-4-yl)oxy][1,3]thiazolo[4,5-c]pyridine] had a pIC50 of 6.30 to 7.00. `Cn1cc2cc(-c3cc4sc(OC5CCNCC5)nc4cn3)cc(C#N)c2n1` [Compound 315, 2-methyl-5-{2-[(piperidin-4-yl)oxy][1,3]thiazolo[4,5-c]pyridin-6-yl}-2H-indazole-7-carbonitrile]: the negative-log IC50 (pIC50) is 6.30 to 7.00. The molecule `Cn1cc2cc(-c3cc4sc(OC5CCNCC5)nc4cn3)cc(F)c2n1` [Compound 316, 6-(7-fluoro-2-methyl-2H-indazol-5-yl)-2-[(piperidin-4-yl)oxy][1,3]thiazolo[4,5-c]pyridine] had a pIC50 of 6.30 to 7.00. Consider `Cc1cn2cc(-c3cc(F)c4nc(OC5CCNCC5)sc4c3)cc(C#N)c2n1` [Compound 317, 6-{4-fluoro-2-[(piperidin-4-yl)oxy]-1,3-benzothiazol-6-yl}-2-methylimidazo[1,2-a]pyridine-8-carbonitrile], for which the pIC50 was no less than 7.00. As to `Cn1cc2cc(-c3cc(F)c4nc(OC5CCNCC5)sc4c3)cc(C#N)c2n1` [Compound 318, 5-{4-fluoro-2-[(piperidin-4-yl)oxy]-1,3-benzothiazol-6-yl}-2-methyl-2H-indazole-7-carbonitrile], the pIC50 was no less than 7.00.

The molecule `Cc1cn2cc(-c3cc(F)c4nc(OC5CCNCC5)sc4c3)cc(C)c2n1` [Compound 319, 6-(2,8-dimethylimidazo[1,2-a]pyridin-6-yl)-4-fluoro-2-[(piperidin-4-yl)oxy]-1,3-benzothiazole] showed a pIC50 of no less than 7.00. `Cc1cn2nc(-c3cc(F)c4nc(OC5CCN(C)CC5)sc4c3)cc(C)c2n1` [Compound 320, 6-{4-fluoro-2-[(1-methylpiperidin-4-yl)oxy]-1,3-benzothiazol-6-yl}-2,8-dimethylimidazo[1,2-b]pyridazine] had a pIC50 of no less than 7.00.

`CCN1CCC(Oc2nc3c(F)cc(-c4cc(C)c5nc(C)cn5n4)cc3s2)CC1` [Compound 321, 6-{2-[(1-ethylpiperidin-4-yl)oxy]-4-fluoro-1,3-benzothiazol-6-yl}-2,8-dimethylimidazo[1,2-b]pyridazine] gave a pIC50 of no less than 7.00. On to `Cc1cn2cc(-c3cc4sc(N(C)C5CC6(C)CCC(C)(C5)N6)nc4cn3)nc2c(C)n1` [Compound 322, N-[(1R,3s,5S)-1,5-dimethyl-8-azabicyclo[3.2.1]octan-3-yl]-6-(6,8-dimethylimidazo[1,2-a]pyrazin-2-yl)-N-methyl[1,3]thiazolo[4,5-c]pyridin-2-amine], for which the pIC50 is no less than 7.00. `Cc1cn2cc(-c3ncc4nc(N(C)[C@H]5C[C@]6(C)CC[C@](C)(C5)N6)sc4n3)cc2c(C)n1` [Compound 323, N-[(1R,3s,5S)-1,5-dimethyl-8-azabicyclo[3.2.1]octan-3-yl]-5-(1,3-dimethylpyrrolo[1,2-a]pyrazin-7-yl)-N-methyl[1,3]thiazolo[5,4-d]pyrimidin-2-amine] gave a pIC50 of no less than 7.00. `Cc1cn2cc(-c3ncc4nc(N(C)[C@@H]5CC(C)(C)NC(C)(C)[C@@H]5F)sc4n3)cc(C#N)c2n1` [Compound 324, 6-(2-{[(3R,4R)-3-fluoro-2,2,6,6-tetramethylpiperidin-4-yl](methyl)amino}[1,3]thiazolo[5,4-d]pyrimidin-5-yl)-2-methylimidazo[1,2-a]pyridine-8-carbonitrile]: the pIC50 is no less than 7.00.
